According to ChEMBL document CHEMBL6109083, “Design, synthesis, and antitumor activity of NSDs inhibitors targeting lung squamous cell carcinoma” (Eur J Med Chem, 2025):

How the values were obtained:
A549 = test: Antiproliferative activity against human A549 cells assessed as reduction in cell viability at 0.4 uM by CCK8 assay; format: functional, cell-based; conditions: time 3-6 day
NCI-H1944 = test: Antiproliferative activity against human NCI-H1944 cells assessed as reduction in cell viability at 0.4 uM by CCK8 assay; format: functional, cell-based; conditions: time 3-6 day
[1] = Cmax in male ICR mouse at 1 mg/kg, iv measured up to 24 hrs by LC-MS/MS analysis; format: ADME, organism-based; conditions: in vivo
[2] = Observed AUC (0 to infinity) in male ICR mouse at 1 mg/kg, iv measured up to 24 hrs by LC-MS/MS analysis; format: ADME, organism-based; conditions: in vivo
[3] = Observed AUC (0 to infinity) in male ICR mouse at 10 mg/kg, po measured up to 24 hrs by LC-MS/MS analysis; format: ADME, organism-based; conditions: in vivo

Question: Which results are given for `O=C1C(Cl)=C(NCCc2cccc(F)c2)C(=O)c2ncccc21`?
Answer: Activity (A549): Time-dependent-effect; Activity (NCI-H1944): Time-dependent-effect; Cmax [1]: 35.4 ng/mL; AUC(0-inf) [2]: 10.1 ng·h/mL; AUC(0-inf) [3]: 159 ng·h/mL
